For one data set, the target named is T1, human Hsc70NBD (Homo sapiens, UniProt P11142).
T1 construct: made in house
The experiment in a line: Biolayer interferometry (Octet Red), Hsc70NBD. To be noted: immobilized biotinylated Hsc70NBD. In kind it is binding. On the procedure: Binding of MKT-077 analogs to immobilized Hsp70 was evaluated using a competitive ELISA. In this established assay, a biotinylated version of MKT-077 is bound to immobilized human Hsc70 (HSPA8) and potential competitors are tested for their ability to block the interaction. […] As further controls, the truncated compounds YM-02, YM-03, YM-04 and YM-07 were tested.
Biotinylated human Hsc70NBD or full length Hsp72 were first immobilized on super streptavidin biosensors (ForteBio, 18-5057) as follows: biosensors were soaked with MG buffer (100 mM Tris base, 20 mM KCl, 6 mM MgCl2, 0.01% Triton X-100, pH 7.4) for 10 min before moving them to wells either containing 200 μL […] biotinylated proteins or […] biocytin for 60 min. The free streptavidin sites were subsequently quenched with […] biocytin for 10 min. The biosensors were washed with MG buffer for 5 min prior to beginning the binding experiments. The association and disassociation steps were carried out in MG buffer with a constant 10% DMSO concentration. All steps were performed at room temperature and with 1000 rpm rotary shaking. […] The apparent affinities of YM-08 for Hsc70NBD and Hsp72 were calculated from both equilibrium measurements and global fits of the kon and koff values, yielding similar values.

Data set [1] has as its system stress inducible Hsp72 (HSPA1). In words: Stress response in treated HeLaC3 cell lysates. In kind it is cell-based, human.
The subject of data set [2] is MCF-7, MCF-10A and MB-MDA-231 cells. In words: MTT assays, three cell lines. It counts as cell-based. As to conditions: range over MCF-7, MCF-10A and MB-MDA-231 cells. On the procedure: YM-08 was tested whether it might retain the anti-cancer activity of MKT-077.
(Formazan colour is commonly taken as a measure of viable cells.)

A further data set deals with MEF (C57BL/6). The experiment in a line: Cell survival, MEF. In kind it is cell-based. To be noted: Mus musculus; tau activity screen table; read-out: MEF IC50.
The subject of data set [3] is phospho- and total tau in brain slices from transgenic P301L tau mice (Tg4510). In words: Tau levels in transgenic brain slice cultures. In kind it is cell-based, mouse. To be noted: 30 and 100 μM, 6 hours. The protocol:
(§1) YM-08 activity in a more physiological system was tested. Brain slice cultures from transgenic mice that express mutated tau were treated for 6 hours with YM-08 and the levels of total- and pS396/404 tau measured by Western blots. […] To test whether YM-08 might selectively reduce tau after microtubule disruption, brain slices were cultured from wild type mice and treated them with YM-08 plus the microtubule destabilizer, nocodazole. […] Together, these studies add to growing evidence that Hsp70 selectively identifies tau variants that are not associated with the normal microtubule network, likely minimizing their aggregation and proteotoxicity.

In data set [4] the test system is total and phospho-tau in wild type brain slices. In words: Tau levels in wild type brain slice cultures. It counts as cell-based, mouse. The protocol: as §1
A short description of data set [5]: Liver microsome stability. To be noted: human, liver microsomes. In kind it is in vitro ADME. On the technique in general: Liver microsomes are vesicles of endoplasmic reticulum, rich in cytochrome P450 enzymes.
A short description of data set [6]: Pharmacokinetics of YM-08 in plasma and brain, CD1 mice. In kind it is in vivo, mouse. On the procedure: (§2) The initial pharmacokinetics (PK) of YM-01 and YM-08 were tested in CD1 mice. […] After a single 6.6 mg/kg dose delivered i.v., the peak brain concentration of YM-08 was 4 μg/g (FIG. 7B) and the ratio in the brain:plasma (B/P) ratio was approximately 0.25 for 18 hrs (FIG. 7C). […] It is not yet clear how much tau levels need to be reduced to achieve therapeutic effects in disease models, but the area-under-the-curve (AUCinf) for YM-08 in the brain was 0.26 μg·hr/g and the AUCinf in plasma was 13.6 μg·hr/mL.
Female CD-1 mice (25-30 g in body weight) were purchased from Charles River Laboratories (Wilmington, Mass.). Mice were treated with 6 mg/kg YM-08 through the tail-vein injection. The plasma and brain were collected at 0.016, 0.08, 0.16, 0.25, 0.5, 1, 2, 4, 6, 13, 18, 24 and 48 h after drug administration. Whole blood samples were drawn through the cardiac puncture using a heparinized syringe with a 22 gauge needle, followed by centrifugation at 3,000 g for 10 min at 4° C. to obtain plasma. Collected tissues were washed with PBS, immediately frozen using liquid nitrogen, and stored at −80° C. until further analysis. Tissue homogenates were prepared by adding PBS (1:5 w/v, homogenate/PBS) and homogenization for 3 min. Compound was extracted from 100 μL of sample by adding 300 μL of acetonitrile containing 50 ng/mL IS, followed by vortexing for 3 min. The supernatant was collected and subjected to LC-MS/MS analysis.
The separation of YM-08 and internal standard was performed using Agilent 1200 HPLC system (Agilent Technologies, Santa Clara, Calif.) and Zobarx SB-C18 column (2.1×50 mm, 3.5 μm) (Agilent Technologies). […] The compounds were eluted with an fixed gradient of 20% solvent A and 80% of solvent B. Solvent A consisted of 0.1% (v/v) glacial acetic acid in water and solvent B consisted of 0.1% (v/v) glacial acetic acid in acetonitrile. After injecting 10 μl of samples into HPLC system, the elution was performed over 2 min at a flow rate of 0.4 ml/min. The YM-08 and MKT-077 eluents were detected using QTRAP 3200 mass spectrometer (Applied Biosystems/MDS Sciex, Foster City, Calif.) equipped with an electrospray ionization source (ESI). The temperature of ESI was set at 650° C. and curtain gas, gas 1, and gas 2 were set to 30, 50, and 50 units, respectively. A positive voltage at 5500 V was applied through ESI to convert the eluents to ions in the form of MH+. The ions were detected using a MRM mode. The ion transitions from the precursor ion (m/z 368) to the fragment ion (m/z=222) and from the precursor ion (m/z 396) to the fragment ion (m/z=175) were used to detect YM-08 and IS, respectively.

A short description of data set [7]: Solubility in dosing vehicle. It counts as physicochemical. On the procedure: (A) Initial pharmacokinetics and biodistribution of YM-01 and YM-08. Compounds were suspended in buffered saline (YM-01) or 10% DMSO/saline (YM-08) and injected at 20 and 10 mg/kg, respectively. YM-08 was not soluble in saline or 10% DMSO/saline at 20 mg/kg. The levels of YM-08 in the brain at 1 hr after injection could not be accurately determined because its value was outside the calibration curve. […] Results are average from data acquired from three female mice. (C) YM-08 maintains a B/P ratio of nearly 0.25 for 18 hrs.
as §2

Data set [8] is described as follows: t1/2 in tau activity screen table. In kind it is in vitro ADME. As to conditions: liver microsomes; matrix not stated.

Structures are written as SMILES. Where “and” joins values, the source holds several entries; their conditions need not be identical. Equal entries are not always repeated. Entries after “also recorded” stand apart in the source; their conditions may differ.

The values that follow come from patent US9808448B2, “Pharmaceutical compounds and use of same in cancer and tauopathies” (THE REGENTS OF THE UNIVERSITY OF MICHIGAN, priority 2013, dated 2017).

The term Kd denotes the constant that tells how readily two partners part at equilibrium. Read a low Kd as higher affinity. For orientation: EC50 means the midpoint of the concentration-response curve. The low end stands for higher potency in that assay, the high end for lower potency in that assay. What is called IC50 is the concentration at which inhibition is half-maximal.

T1 sequence (P11142 2-386 limits assumed): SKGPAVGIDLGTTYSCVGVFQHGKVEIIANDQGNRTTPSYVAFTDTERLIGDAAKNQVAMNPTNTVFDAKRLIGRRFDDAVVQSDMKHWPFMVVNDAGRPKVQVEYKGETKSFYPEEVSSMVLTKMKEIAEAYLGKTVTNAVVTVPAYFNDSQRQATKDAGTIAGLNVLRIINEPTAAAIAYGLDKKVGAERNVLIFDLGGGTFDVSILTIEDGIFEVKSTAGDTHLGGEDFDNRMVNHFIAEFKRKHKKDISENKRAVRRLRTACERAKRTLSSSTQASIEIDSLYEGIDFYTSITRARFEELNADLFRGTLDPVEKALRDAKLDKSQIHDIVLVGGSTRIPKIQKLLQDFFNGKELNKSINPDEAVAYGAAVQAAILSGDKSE

Take `CCn1c(=O)/c(=C2\Sc3ccccc3N2C)s/c1=C\c1ccccn1` [YM-08, (2Z,5E)-3-ethyl-5-(3-methylbenzo[d]thiazol-2(3H)-ylidene)-2-(pyridin-2-ylmethylene)thiazolidin-4-one]: the Kd on human Hsc70NBD is ~2.3 µM and ~4 µM. For the same molecule, in data set [1], the “stress response (Hsp72 levels)” value is on record as “did not induce a stress response”. For the same molecule, in [2], the EC50 lay within 7.8 to 10.5 µM. Besides, in the data set with MEF (C57BL/6), the IC50 was 4.2 ± 0.24 µM. Besides, the phospho-tau level result in data set [3] is reported as “reduced phospho-tau”. Further, the “tau levels, YM-08 alone” value in [4] is “unchanged; also recorded: did not significantly reduce tau levels”. For the same molecule, the “total and phospho-tau levels, plus nocodazole” value in data set [4] (microtubule disruption) was “decreased levels of both total and phospho-tau”. The half-life in [5] is 2 to 4 min; in data set [5] (figure legend) it was ~4 min; in data set [6] (female, CD-1, mouse, brain, iv, 6.6 mg/kg i.v., read-out: terminal halftime in the brain (t1/2; brain) (converted)) it was 408 min; in data set [6] (female, CD-1, mouse, plasma, iv, 6.6 mg/kg i.v., read-out: t1/2, plasma (converted)), 588 min; in data set [8] it was < 3 min. For the same molecule, the “AUCinf in the brain” value in [6] (6.6 mg/kg i.v.) worked out at 0.26 µg·h/g. In addition, in [6] (female, CD-1, mouse, brain/plasma, iv, 6.6 mg/kg, 6.6 mg/kg i.v., for 18 hrs, read-out: brain:plasma (B/P) ratio), the Kp at 18 h was ~0.25. In addition, the AUC(0-inf) in data set [6] (female, CD-1, mouse, plasma, iv, 6.6 mg/kg i.v., read-out: AUCinf in plasma) is 13600 ng·h/mL. Further, in data set [6] (single 6.6 mg/kg i.v., Cremophor mixture), the peak brain concentration came out at 4 µg/g. Besides, the “solubility in saline or 10% DMSO/saline” value in data set [7] is listed as “not soluble; also recorded: only marginally soluble”.
